Experimental data as given in patent US9815842B2, “Pyrazolo pyrimidine derivatives and their use as MALT1 inhibitors” (Novartis AG, priority 2014, dated 2017).
pIC50: −log10 of the molar value. Read-outs that look alike come from different tables or passages of the source.

Tests used:
[1] = target: T1, cIAP2-MALT1 fusion protein (Homo sapiens, UniProt Q9UDY8); settings: read-out: NFkappaB reporter gene assay IC50; HEK293 stably expressing cIAP2-MALT1, luciferase, 24 h compound incubation
Human IL2 promoter = Human IL2 promoter reporter gene assay (RGA) in Jurkat cells; type: cell-based; settings: Jurkat clone K22 290_H23, anti-CD28 mAb + PMA stimulation 5.5 h
In short: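 Transfected Jurkat clone K22 290_H23 cells were pre-incubated with compounds 30 min at 37 °C, then stimulated 5.5 h with anti-CD28 mAb (15E8, 3 μg/ml) plus PMA (1 μg/ml). IL2-promoter reporter activity was read as BriteLitePlus bioluminescence.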

[2] = target: T1, cIAP2-MALT1 fusion protein; experiment: cell-based
[3] = target: C-domain of MALT1 (amino acids 329-824) (Homo sapiens (Human), UniProt Q9UDY8); experiment: MALT1 biochemical assay (fluorescence lifetime enzyme activity assay); settings: 60 min pre-incubation, 2.5 nM enzyme, 1 μM peptide substrate
Chain of C-domain of MALT1 (amino acids 329-824) (Q9UDY8 329-824): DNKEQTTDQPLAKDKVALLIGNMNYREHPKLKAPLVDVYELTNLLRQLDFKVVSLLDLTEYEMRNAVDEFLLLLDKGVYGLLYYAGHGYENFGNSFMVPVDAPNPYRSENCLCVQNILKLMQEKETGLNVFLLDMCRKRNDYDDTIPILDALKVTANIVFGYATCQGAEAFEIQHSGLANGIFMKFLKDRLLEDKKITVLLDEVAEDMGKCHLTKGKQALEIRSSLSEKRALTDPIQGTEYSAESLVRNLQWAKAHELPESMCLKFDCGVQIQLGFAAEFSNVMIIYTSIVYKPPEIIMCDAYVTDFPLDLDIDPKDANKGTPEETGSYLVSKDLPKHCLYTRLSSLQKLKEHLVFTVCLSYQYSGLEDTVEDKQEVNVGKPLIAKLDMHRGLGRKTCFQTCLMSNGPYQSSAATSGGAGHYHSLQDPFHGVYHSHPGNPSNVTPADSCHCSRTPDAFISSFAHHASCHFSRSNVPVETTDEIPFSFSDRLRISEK

T1 sequence (Q9UDY8 2-824 limits assumed): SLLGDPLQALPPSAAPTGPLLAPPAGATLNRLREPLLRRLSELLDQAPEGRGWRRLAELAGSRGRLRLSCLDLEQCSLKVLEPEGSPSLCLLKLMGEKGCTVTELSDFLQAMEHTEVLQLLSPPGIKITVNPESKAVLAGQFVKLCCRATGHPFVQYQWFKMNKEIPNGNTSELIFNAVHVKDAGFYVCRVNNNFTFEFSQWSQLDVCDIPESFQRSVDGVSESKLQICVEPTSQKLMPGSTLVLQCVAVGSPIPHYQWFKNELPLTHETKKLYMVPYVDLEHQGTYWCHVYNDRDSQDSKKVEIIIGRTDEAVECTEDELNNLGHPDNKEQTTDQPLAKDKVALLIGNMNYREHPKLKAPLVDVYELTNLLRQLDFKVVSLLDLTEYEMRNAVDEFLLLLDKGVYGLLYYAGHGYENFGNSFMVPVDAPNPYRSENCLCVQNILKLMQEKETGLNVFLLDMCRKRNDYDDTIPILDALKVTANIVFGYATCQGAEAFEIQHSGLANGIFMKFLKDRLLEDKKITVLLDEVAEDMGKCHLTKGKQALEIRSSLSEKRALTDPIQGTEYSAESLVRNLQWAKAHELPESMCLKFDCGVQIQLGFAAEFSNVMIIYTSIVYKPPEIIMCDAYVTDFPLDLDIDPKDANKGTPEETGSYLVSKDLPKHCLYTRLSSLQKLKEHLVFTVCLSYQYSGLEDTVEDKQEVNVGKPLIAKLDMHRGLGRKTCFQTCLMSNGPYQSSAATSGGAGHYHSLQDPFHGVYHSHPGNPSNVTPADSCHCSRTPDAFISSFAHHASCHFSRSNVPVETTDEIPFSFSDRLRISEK

SMILES | pIC50 [1] | pIC50 (Human IL2 promoter) | pIC50 [2] | pIC50 [3]
CN1CCOCC1Cc1c(NC(=O)Nc2cnc(-n3nccn3)c(Cl)c2)cnc2cc(Cl)nn12 (centres unmarked) [Example 83, 1-(5-chloro-6-(2h-1,2,3-triazol-2-yl)pyridin-3-yl)-3-(2-chloro-7-((4-methylmorpholin-3-yl)methyl)pyrazolo[1,5-a]pyrimidin-6-yl)urea] | 6.08 |  |  | 
C[C@@H](c1c(NC(=O)Nc2cnc(-n3nccn3)c(Cl)c2)cnc2cc(Cl)nn12)N(C)C [Example 122, (S)-1-(5-chloro-6-(2H-1,2,3-triazol-2-yl)pyridin-3-yl)-3-(2-chloro-7-(1-(dimethylamino)ethyl)pyrazolo[1,5-a]pyrimidin-6-yl)urea] | 7.37 | 7.77 |  | 
COc1ncc(NC(=O)Nc2cnc3cc(Cl)nn3c2C2CCC(C)O2)cc1Cl (centres unmarked) [Example 87, 1-(5-chloro-6-methoxypyridin-3-yl)-3-(2-chloro-7-(5-methyltetrahydrofuran-2-yl)pyrazolo[1,5-a]pyrimidin-6-yl)urea] | 6.38 |  |  | 
CCC(C)c1c(NC(=O)Nc2cnc(-n3nccn3)c(Cl)c2)cnc2cc(Cl)nn12 (centres unmarked) [Example 35, 1-(7-(sec-butyl)-2-chloropyrazolo[1,5-a]pyrimidin-6-yl)-3-(5-chloro-6-(2H-1,2,3-triazol-2-yl)pyridin-3-yl)urea] | 7.32 | 7.23 |  | 
C[C@H](c1c(NC(=O)Nc2cnc(-n3nccn3)c(Cl)c2)cnc2cc(Cl)nn12)N(C)C [Example 121, (R)-1-(5-chloro-6-(2H-1,2,3-triazol-2-yl)pyridin-3-yl)-3-(2-chloro-7-(1-(dimethylamino)ethyl)pyrazolo[1,5-a]pyrimidin-6-yl)urea] | 6.66 |  |  | 
COCCO[C@@H](C)c1c(NC(=O)Nc2ccnc(C(F)(F)F)c2)cnc2cc(Cl)nn12 [Example 41, (S)-1-(2-chloro-7-(1-(2-methoxyethoxy)ethyl)pyrazolo[1,5-a]pyrimidin-6-yl)-3-(2-(trifluoromethyl)pyridin-4-yl)urea] | 6.45 |  |  | 
CC1(c2c(NC(=O)Nc3cnc(-n4nccn4)c(Cl)c3)cnc3cc(Cl)nn23)CC1 [Example 16, 1-(5-chloro-6-(2H-1,2,3-triazol-2-yl)pyridin-3-yl)-3-(2-chloro-7-(1-methylcyclopropyl)pyrazolo[1,5-a]pyrimidin-6-yl)urea] | 7.46 |  |  | 
O=C(Nc1cnc(-n2nccn2)c(Cl)c1)Nc1cnc2cc(Cl)nn2c1C1CC12CCOC2 (centres unmarked) [Example 68, 1-(5-chloro-6-(2H-1,2,3-triazol-2-yl)pyridin-3-yl)-3-(2-chloro-7-(5-oxaspiro[2.4]heptan-1-yl)pyrazolo[1,5-a]pyrimidin-6-yl)urea] | 6.23 |  |  | 
O=C(Nc1cnc(-n2nccn2)c(Cl)c1)Nc1cnc2cc(Cl)nn2c1C1COCCO1 (centres unmarked) [Example 43, 1-(5-chloro-6-(2H-1,2,3-triazol-2-yl)pyridin-3-yl)-3-(2-chloro-7-(1,4-dioxan-2-yl)pyrazolo[1,5-a]pyrimidin-6-yl)urea] | 6.80 |  |  | 
O=C(Nc1cnc(-n2nccn2)c(C(F)(F)F)c1)Nc1cnc2cc(Cl)nn2c1C1CCCO1 (centres unmarked) [Example 54, 1-(6-(2H-1,2,3-triazol-2-yl)-5-(trifluoromethyl)pyridin-3-yl)-3-(2-chloro-7-(tetrahydrofuran-2-yl)pyrazolo[1,5-a]pyrimidin-6-yl)urea] | 6.93 | 7.03 |  | 
COCC1(c2c(NC(=O)Nc3ccnc(C(F)(F)F)c3)cnc3cc(Cl)nn23)CCC1 [Example 51, 1-(2-chloro-7-(1-(methoxymethyl)cyclobutyl)pyrazolo[1,5-a]pyrimidin-6-yl)-3-(2-(trifluoromethyl)pyridin-4-yl)urea] | 6.71 |  |  | 
CN1CCOC(c2c(NC(=O)Nc3cnc(-n4nccn4)c(Cl)c3)cnc3cc(Cl)nn23)C1 (centres unmarked) [Example 116, 1-(5-chloro-6-(2H-1,2,3-triazol-2-yl)pyridin-3-yl)-3-(2-chloro-7-(4-methylmorpholin-2-yl)pyrazolo[1,5-a]pyrimidin-6-yl)urea] | 6.16 |  |  | 
O=C(Nc1cnc(-n2nccn2)c(C(F)(F)F)c1)Nc1cnc2cc(Cl)nn2c1-c1ccco1 [Example 63, 1-(6-(2H-1,2,3-triazol-2-yl)-5-(trifluoromethyl)pyridin-3-yl)-3-(2-chloro-7-(furan-2-yl)pyrazolo[1,5-a]pyrimidin-6-yl)urea] | 6.45 |  |  | 
COc1ncc(NC(=O)Nc2cnc3cc(Cl)nn3c2-c2ccncc2)cc1Cl [Example 69, 1-(5-chloro-6-methoxypyridin-3-yl)-3-(2-chloro-7-(pyridin-4-yl)pyrazolo[1,5-a]pyrimidin-6-yl)urea] | 6.17 |  |  | 
COCC(OC)c1c(NC(=O)Nc2cnc(-n3nccn3)c(Cl)c2)cnc2cc(Cl)nn12 (centres unmarked) [Example 56, 1-(5-chloro-6-(2H-1,2,3-triazol-2-yl)pyridin-3-yl)-3-(2-chloro-7-(1,2-dimethoxyethyl)pyrazolo[1,5-a]pyrimidin-6-yl)urea] |  | 7.02 | 6.88 | 8.30
COCCO[C@@H](C)c1c(NC(=O)Nc2cnc(OC)c(Cl)c2)cnc2cc(Cl)nn12 [Example 40, (S)-1-(5-chloro-6-methoxypyridin-3-yl)-3-(2-chloro-7-(1-(2-methoxyethoxy)ethyl)pyrazolo[1,5-a]pyrimidin-6-yl)urea] |  | 7.37 | 6.95 | 8.22
CO[C@H](c1c(NC(=O)Nc2cnc(-n3nccn3)c(Cl)c2)cnc2cc(Cl)nn12)C(C)C [Example 74, (S)-1-(5-chloro-6-(2H-1,2,3-triazol-2-yl)pyridin-3-yl)-3-(2-chloro-7-(1-methoxy-2-methylpropyl)pyrazolo[1,5-a]pyrimidin-6-yl)urea] |  | 7.49 | 7.52 | 8.70
CO[C@@H](C)c1c(NC(=O)Nc2ccnc(C(F)(F)F)c2)cnc2cc(C)nn12 [Example 6, (S)-1-(7-(1-methoxyethyl)-2-methylpyrazolo[1,5-a]pyrimidin-6-yl)-3-(2-(trifluoromethyl)pyridin-4-yl)urea] | 6.88 | 7.28 |  | 
CC(C)c1c(NC(=O)Nc2ccc(-n3nccn3)c(Cl)c2)cnc2cc(Cl)nn12 [Example 20, 1-(3-chloro-4-(2H-1,2,3-triazol-2-yl)phenyl)-3-(2-chloro-7-isopropylpyrazolo[1,5-a]pyrimidin-6-yl)urea] |  | 6.61 | 7.00 | 8.52
CC(C)c1c(NC(=O)Nc2cc(Cl)c(-n3nccn3)nc2OC2CCN(C)C2)cnc2cc(Cl)nn12 (centres unmarked) [Example 33, 1-(5-chloro-2-((1-methylpyrrolidin-3-yl)oxy)-6-(2H-1,2,3-triazol-2-yl)pyridin-3-yl)-3-(2-chloro-7-isopropylpyrazolo[1,5-a]pyrimidin-6-yl)urea] | 6.39 |  |  | 7.52
Cc1cnn(-c2ncc(NC(=O)Nc3cnc4cc(Cl)nn4c3C(C)C)cc2Cl)n1 [Example 22, 1-(5-chloro-6-(4-methyl-2H-1,2,3-triazol-2-yl)pyridin-3-yl)-3-(2-chloro-7-isopropylpyrazolo[1,5-a]pyrimidin-6-yl)urea] |  | 7.00 | 7.13 | 8.40
CC(C)c1c(NC(=O)Nc2cc(C(F)(F)F)cn(C)c2=O)cnc2cc(Cl)nn12 [Example 32, 1-(2-chloro-7-isopropylpyrazolo[1,5-a]pyrimidin-6-yl)-3-(1-methyl-2-oxo-5-(trifluoromethyl)-1,2-dihydropyridin-3-yl)urea] |  | 6.66 | 6.67 | 7.72
CO[C@H](c1c(NC(=O)Nc2ccnc(C(F)(F)F)c2)cnc2cc(Cl)nn12)C(C)C [Example 75, (S)-1-(2-chloro-7-(1-methoxy-2-methylpropyl)pyrazolo[1,5-a]pyrimidin-6-yl)-3-(2-(trifluoromethyl)pyridin-4-yl)urea] |  | 7.14 | 7.00 | 8.30
O=C(Nc1cnc(-n2nccn2)c(Cl)c1)Nc1cnc2cc(Cl)nn2c1C1CCC1 [Example 38, 1-(5-chloro-6-(2H-1,2,3-triazol-2-yl)pyridin-3-yl)-3-(2-chloro-7-cyclobutylpyrazolo[1,5-a]pyrimidin-6-yl)urea] |  | 6.84 | 6.75 | 8.30
COCC1(c2c(NC(=O)Nc3cnc(-n4nccn4)c(Cl)c3)cnc3cc(C)nn23)CC1 [Example 78, 1-(5-chloro-6-(2H-1,2,3-triazol-2-yl)pyridin-3-yl)-3-(7-(1-(methoxymethyl)cyclopropyl)-2-methylpyrazolo[1,5-a]pyrimidin-6-yl)urea] |  | 7.12 | 6.80 | 7.68
CN(C)C1(c2c(NC(=O)Nc3cnc(-n4nccn4)c(Cl)c3)cnc3cc(Cl)nn23)CC1 [Example 88, 1-(5-chloro-6-(2H-1,2,3-triazol-2-yl)pyridin-3-yl)-3-(2-chloro-7-(1-(dimethylamino)cyclopropyl)pyrazolo[1,5-a]pyrimidin-6-yl)urea] |  | 7.33 | 6.99 | 7.85
COc1ncc(NC(=O)Nc2cnc3cc(Cl)nn3c2[C@H](C)OC)cc1Cl [Example 9, (S)-1-(5-chloro-6-methoxypyridin-3-yl)-3-(2-chloro-7-(1-methoxyethyl)pyrazolo[1,5-a]pyrimidin-6-yl)urea] | 7.36 | 6.96 |  | 
COCC(C)(OC)c1c(NC(=O)Nc2cnc(-n3nccn3)c(Cl)c2)cnc2cc(Cl)nn12 (centres unmarked) [Example 81, 1-(5-chloro-6-(2H-1,2,3-triazol-2-yl)pyridin-3-yl)-3-(2-chloro-7-(1,2-dimethoxypropan-2-y)pyrazolo[1,5-a]pyrimidin-6-yl)urea] |  | 7.20 | 7.02 | 8.30
